Measurements: PMC4685510, “A Cell Biologist’s Field Guide to Aurora Kinase Inhibitors” (Frontiers in Oncology, 2015)
Like-named read-outs stand apart in the source and are kept apart here.

Tests used:
Assay in all cases: biochemical
Assay type in all cases: biochemical
[1] = biological target: 363 human kinases (including Aurora A/B/C) (Homo sapiens, UniProt Q9H422); details: HIPK3; for remaining activity at 0.1 µM: 100 nM; for remaining activity at 0.1 µM / remaining activity at 0.5 µM: read-out: % Enzyme Activity (relative to DMSO controls)
363 human kinases (including Aurora A/B/C) (Homo sapiens, UniProt Q9H422), sequence (Q9H422 whole entry): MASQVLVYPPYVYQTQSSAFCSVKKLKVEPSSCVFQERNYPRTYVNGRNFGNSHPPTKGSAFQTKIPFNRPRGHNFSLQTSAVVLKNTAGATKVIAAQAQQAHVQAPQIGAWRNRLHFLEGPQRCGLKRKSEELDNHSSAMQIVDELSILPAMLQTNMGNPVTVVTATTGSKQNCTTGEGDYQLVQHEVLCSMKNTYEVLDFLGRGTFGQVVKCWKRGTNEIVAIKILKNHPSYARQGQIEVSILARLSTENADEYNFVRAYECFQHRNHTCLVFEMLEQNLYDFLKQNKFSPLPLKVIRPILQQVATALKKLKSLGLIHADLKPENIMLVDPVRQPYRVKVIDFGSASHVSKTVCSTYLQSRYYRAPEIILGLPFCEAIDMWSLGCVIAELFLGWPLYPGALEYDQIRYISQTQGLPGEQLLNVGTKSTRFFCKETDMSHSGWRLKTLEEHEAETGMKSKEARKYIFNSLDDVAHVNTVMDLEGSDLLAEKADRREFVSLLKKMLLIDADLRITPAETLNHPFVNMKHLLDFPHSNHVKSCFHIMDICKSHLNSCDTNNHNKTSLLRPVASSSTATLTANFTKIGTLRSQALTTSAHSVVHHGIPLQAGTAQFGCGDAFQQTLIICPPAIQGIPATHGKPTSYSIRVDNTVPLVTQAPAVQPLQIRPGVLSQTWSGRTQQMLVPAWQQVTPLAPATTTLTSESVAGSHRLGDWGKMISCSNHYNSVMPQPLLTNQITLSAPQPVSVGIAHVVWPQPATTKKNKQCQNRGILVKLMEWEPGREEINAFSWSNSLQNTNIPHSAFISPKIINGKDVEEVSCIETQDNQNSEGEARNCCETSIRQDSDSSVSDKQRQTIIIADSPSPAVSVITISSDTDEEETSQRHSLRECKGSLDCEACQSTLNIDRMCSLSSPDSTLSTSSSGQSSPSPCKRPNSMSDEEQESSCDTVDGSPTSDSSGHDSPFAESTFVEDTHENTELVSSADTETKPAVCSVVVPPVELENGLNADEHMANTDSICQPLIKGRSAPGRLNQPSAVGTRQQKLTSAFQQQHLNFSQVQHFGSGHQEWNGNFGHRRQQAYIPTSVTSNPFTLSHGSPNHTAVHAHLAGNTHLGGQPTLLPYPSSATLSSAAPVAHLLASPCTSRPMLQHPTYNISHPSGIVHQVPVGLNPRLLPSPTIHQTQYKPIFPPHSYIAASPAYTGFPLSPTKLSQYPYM
Source text: (§1) However, the Aurora A/B selectivity ratios derived from our in vitro and in vivo data can be compared to prioritize inhibitors.

[2] = biological target: T1, 363 human kinases (including Aurora A/B/C) (Homo sapiens, UniProt P54760); details: EPHB4, [ATP] 20 µM; for remaining activity at 0.1 µM: 100 nM; for remaining activity at 0.1 µM / remaining activity at 0.5 µM: read-out: % Enzyme Activity (relative to DMSO controls)
T1 sequence (P54760 16-987): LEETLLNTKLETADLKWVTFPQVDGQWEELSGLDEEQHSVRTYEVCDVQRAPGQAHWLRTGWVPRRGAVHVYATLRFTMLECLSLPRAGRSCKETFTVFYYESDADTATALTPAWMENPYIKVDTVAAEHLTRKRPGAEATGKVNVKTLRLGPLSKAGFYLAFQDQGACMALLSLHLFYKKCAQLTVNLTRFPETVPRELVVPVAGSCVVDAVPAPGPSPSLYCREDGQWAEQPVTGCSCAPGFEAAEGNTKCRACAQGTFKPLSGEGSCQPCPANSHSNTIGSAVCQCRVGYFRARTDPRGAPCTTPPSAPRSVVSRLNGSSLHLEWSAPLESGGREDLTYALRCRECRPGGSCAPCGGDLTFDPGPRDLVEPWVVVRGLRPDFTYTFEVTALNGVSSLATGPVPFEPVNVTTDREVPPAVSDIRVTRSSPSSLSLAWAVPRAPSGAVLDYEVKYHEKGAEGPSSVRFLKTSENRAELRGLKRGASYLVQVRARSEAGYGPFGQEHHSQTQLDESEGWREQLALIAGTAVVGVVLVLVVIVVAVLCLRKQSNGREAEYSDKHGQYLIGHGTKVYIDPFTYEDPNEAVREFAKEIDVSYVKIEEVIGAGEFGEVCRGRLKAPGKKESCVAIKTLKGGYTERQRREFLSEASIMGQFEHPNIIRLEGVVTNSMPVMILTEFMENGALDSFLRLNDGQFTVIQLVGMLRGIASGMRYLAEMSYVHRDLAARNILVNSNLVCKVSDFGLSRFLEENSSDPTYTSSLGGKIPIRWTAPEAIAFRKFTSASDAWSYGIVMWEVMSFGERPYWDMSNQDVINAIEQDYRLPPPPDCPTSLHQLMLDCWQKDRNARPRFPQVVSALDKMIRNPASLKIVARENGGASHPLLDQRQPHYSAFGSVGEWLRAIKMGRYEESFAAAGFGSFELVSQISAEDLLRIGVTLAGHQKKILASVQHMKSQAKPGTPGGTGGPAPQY
Source text: as §1

[3] = biological target: T2, 363 human kinases (including Aurora A/B/C) (Homo sapiens, UniProt O15146); details: MUSK; for remaining activity at 0.1 µM: 100 nM; for remaining activity at 0.1 µM / remaining activity at 0.5 µM: read-out: % Enzyme Activity (relative to DMSO controls)
T2 sequence (O15146 24-869): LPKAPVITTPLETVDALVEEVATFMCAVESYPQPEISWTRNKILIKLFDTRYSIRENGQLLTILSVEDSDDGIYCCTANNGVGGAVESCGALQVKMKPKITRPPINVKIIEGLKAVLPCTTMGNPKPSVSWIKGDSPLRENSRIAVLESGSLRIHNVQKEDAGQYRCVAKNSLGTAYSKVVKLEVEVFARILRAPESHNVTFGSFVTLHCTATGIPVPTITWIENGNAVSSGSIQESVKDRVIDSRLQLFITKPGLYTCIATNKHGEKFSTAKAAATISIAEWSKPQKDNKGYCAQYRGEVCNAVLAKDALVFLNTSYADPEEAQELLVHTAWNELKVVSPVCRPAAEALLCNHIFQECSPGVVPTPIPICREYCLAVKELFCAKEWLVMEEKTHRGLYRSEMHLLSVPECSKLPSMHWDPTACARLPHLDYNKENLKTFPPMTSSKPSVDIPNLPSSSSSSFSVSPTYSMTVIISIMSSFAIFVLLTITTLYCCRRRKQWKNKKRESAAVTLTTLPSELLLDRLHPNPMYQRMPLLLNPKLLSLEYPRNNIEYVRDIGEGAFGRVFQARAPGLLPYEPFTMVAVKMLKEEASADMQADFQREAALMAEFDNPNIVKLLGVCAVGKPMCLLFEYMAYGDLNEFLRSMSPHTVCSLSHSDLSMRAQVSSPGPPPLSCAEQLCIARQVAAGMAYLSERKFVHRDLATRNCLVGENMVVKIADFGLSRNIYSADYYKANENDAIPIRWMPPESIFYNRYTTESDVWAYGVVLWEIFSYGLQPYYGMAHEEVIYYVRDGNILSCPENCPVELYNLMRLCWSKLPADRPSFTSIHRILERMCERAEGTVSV
Source text: as §1

[4] = biological target: T3, 363 human kinases (including Aurora A/B/C) (Homo sapiens, UniProt Q9H2K8); details: TAOK3/JIK; for remaining activity at 0.1 µM: 100 nM; for remaining activity at 0.1 µM / remaining activity at 0.5 µM: read-out: % Enzyme Activity (relative to DMSO controls)
T3 sequence (Q9H2K8 1-898): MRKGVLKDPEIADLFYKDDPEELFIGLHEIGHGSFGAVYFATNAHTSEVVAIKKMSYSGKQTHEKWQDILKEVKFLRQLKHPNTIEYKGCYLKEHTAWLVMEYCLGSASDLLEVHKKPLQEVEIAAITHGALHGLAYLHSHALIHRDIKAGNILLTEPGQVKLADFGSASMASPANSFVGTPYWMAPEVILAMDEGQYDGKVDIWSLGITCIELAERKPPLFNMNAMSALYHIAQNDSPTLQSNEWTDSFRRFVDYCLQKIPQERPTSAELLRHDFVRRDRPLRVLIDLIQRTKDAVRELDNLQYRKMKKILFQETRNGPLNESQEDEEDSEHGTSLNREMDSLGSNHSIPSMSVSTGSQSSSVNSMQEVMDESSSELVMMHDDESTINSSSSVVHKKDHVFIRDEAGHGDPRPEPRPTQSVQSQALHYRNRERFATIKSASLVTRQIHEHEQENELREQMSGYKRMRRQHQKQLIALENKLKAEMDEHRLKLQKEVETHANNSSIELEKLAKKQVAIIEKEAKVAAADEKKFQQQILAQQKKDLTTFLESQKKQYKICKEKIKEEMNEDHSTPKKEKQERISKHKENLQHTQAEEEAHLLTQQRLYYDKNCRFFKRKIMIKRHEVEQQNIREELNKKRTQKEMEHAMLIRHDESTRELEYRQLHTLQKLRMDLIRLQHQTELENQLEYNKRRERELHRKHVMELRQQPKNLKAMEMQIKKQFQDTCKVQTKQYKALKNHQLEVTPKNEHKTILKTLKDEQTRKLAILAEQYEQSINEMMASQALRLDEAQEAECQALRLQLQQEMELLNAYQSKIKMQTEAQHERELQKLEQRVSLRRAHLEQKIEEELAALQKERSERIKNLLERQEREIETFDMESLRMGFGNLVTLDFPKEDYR
Source text: as §1

[5] = biological target: 363 human kinases (including Aurora A/B/C) (Homo sapiens, UniProt Q96GD4); details: for remaining activity at 0.1 µM / remaining activity at 0.5 µM: read-out: % Enzyme Activity (relative to DMSO controls)
363 human kinases (including Aurora A/B/C) (Homo sapiens, UniProt Q96GD4), sequence (Q96GD4 whole entry): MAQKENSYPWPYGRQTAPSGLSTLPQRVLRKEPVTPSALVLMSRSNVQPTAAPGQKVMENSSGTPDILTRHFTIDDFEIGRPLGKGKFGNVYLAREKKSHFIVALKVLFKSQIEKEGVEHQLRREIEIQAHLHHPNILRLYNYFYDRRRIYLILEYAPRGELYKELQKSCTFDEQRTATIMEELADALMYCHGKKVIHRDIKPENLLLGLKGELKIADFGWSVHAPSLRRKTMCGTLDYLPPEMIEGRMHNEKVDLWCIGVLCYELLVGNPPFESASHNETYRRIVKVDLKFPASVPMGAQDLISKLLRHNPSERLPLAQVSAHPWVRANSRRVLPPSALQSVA
Source text: as §1

| SMILES | remaining activity at 0.1 µM [1] [%] | remaining activity at 0.1 µM [2] [%] | remaining activity at 0.1 µM [3] [%] | remaining activity at 0.1 µM [4] [%] | remaining activity at 0.1 µM [5] [%] | remaining activity at 0.5 µM ([1]; 500 nM) [%] | remaining activity at 0.5 µM ([2]; 500 nM) [%] | remaining activity at 0.5 µM ([3]; 500 nM) [%] | remaining activity at 0.5 µM ([4]; 500 nM) [%] | remaining activity at 0.5 µM [5] [%] | % Enzyme Activity (relative to DMSO controls) ([1]; 500 nM) [%] | % Enzyme Activity (relative to DMSO controls) ([2]; 500 nM) [%] | % Enzyme Activity (relative to DMSO controls) ([3]; 500 nM) [%] | % Enzyme Activity (relative to DMSO controls) ([4]; 500 nM) [%] | % Enzyme Activity (relative to DMSO controls) ([5]; Aurora B, [ATP] 100 µM, 500 nM) [%] | remaining activity at 0.5 µM ([5]; Aurora B, [ATP] 100 µM, 500 nM) [%] |
| --- | --- | --- | --- | --- | --- | --- | --- | --- | --- | --- | --- | --- | --- | --- | --- | --- |
| CCn1cc(-c2ccnc3[nH]c(-c4cccc(CN(C)C)c4)cc23)c(-c2ccc(NC(=O)N(C)C)cc2)n1 [GSK1070916] | 106 | 87.9 | 96 | 174 | 12.8 |  |  |  |  |  |  |  |  |  |  |  |
| O=C(O)[C@]1(Cc2cccc(Nc3nccs3)n2)CC[C@@H](Oc2cccc(Cl)c2F)CC1 [MK-5108] | 97 | 29.5 | 104 | 80.2 | 9.6 | 70 | 5.58 | 71.9 | 110 | 2.85 |  |  |  |  |  |  |
| O=C(c1cccc(Cl)c1F)N1CCN(Cc2cccc(Nc3nccs3)n2)CC1 [MK-8745] |  |  |  |  |  | 105 | 47.7 | 95.3 | 95.2 |  | 105.35 | 47.01 | 94.70 | 93.76 | 59.14 | 62.3 |
